Positions of bridges follow the written chain, without caps; N, C: chain ends. No end group written: not given here.

Data on one substance can be found in patent publication US6379959B1, “Metalocarboxypeptidase inhibitors and derived molecules used as antitumor agents” (Universitat Autonoma de Barcelona, priority 1996, dated 2002).

One experiment has as its system p53. Briefly: Gene expression analysis by Northern transfer, p53 probe. In kind it is cell-based, human. The conditions noted are these: for beta counts, p53 probe: 12 days, Capan-1 (control 138). As for the experimental part:
To verify whether the PCI plays any role in signal transduction, studies of gene expression were carried out by Northern transfer. The probes were: β2-microglobulin, p53 and trypsin. The β2-microglobulin is a constitutive gene that is used as a sample loading control in the gel. p53 is a transcription factor which, among other functions, controls the state of the genomic DNA and the cell cycle (Bates, S. & Vousden, K. H. (1996) Curr. Opin. Genet. Develop., 6: 12-19). If the DNA is damaged, p53 induces its repair and, if it is excessively damaged, it provokes programmed cellular death (apoptosis). Trypsin is a marker of pancreatic cells of the acinar type. The trypsin is not expressed by all the tumoral cells and it is believed that it is expressed by the cells with metastatic power and/or invasive power (Fernández, E. et al., (1994) Cancer, 73: 2285-2295). The probes employed are described as follows:
In the first place, 3×10^6 cells of the human pancreatic adenocarcinoma cell line Capan-1 were placed in each one of the 12 flasks of 150 cm^2. […] They were maintained in culture for 12 days period, changing their medium every 4 days, adding fresh PCI. Once the treatment was completed, the cells were trypsinized and the sediment of the cells was kept at −80° C. Afterwards, the extraction of the RNA was carried out.
The quantifying of the hybridized filters with the respective probes was done using a Betascope 601 blot Analyzer counter (Betagen, USA). The counting time was 45 min for the hybridized filter with the probe p53 and β2-microglobuline and 2 h for the trypsin probe.
Assuming that the counts of the β2-Microglobuline are an indication of the total amount of poly(A^+) RNA, the data may be standardized as a percentage of counts of the band compared to the β2-microglobuline counts of the same cells, giving a value which depends on the abundance of the specific mRNA in relation to the total of mRNA.

For the next experiment, the system named is embryonic cells of mice. To be noted: PCI in low concentrations (5 μg/mL), in vitro; cited from earlier work.
In experiment [1] the test system is human pancreatic adenocarcinoma cell line Capan-1. Briefly: Flow cytometry analysis of cell cycle phases. In kind it is cell-based. The conditions noted are these: 50 µg/mL of PCI.
Experiment [2] relates to mouse melanoma B16 cell line. Briefly: Metastasis test in vivo, liver metastatic focuses after intrasplenic B16 inoculation. To be noted: killed day 11 (control 32±7). More on the design: species or system mice C57BL/6J. How it is done:
In order to study the effect of the PCI on the metastatic capacity of the tumoral cells, mouse melanoma B16 cell line are used used because this line is singeneic with the mice. These cells, intrasplenically inoculated in singeneic mice, after 7 days, start to develop metastasis in the liver of the mouse. The following material was employed:
A control group: consisting of 5 mice to which 300,000 cells dissolved in 0.1 mL of alphaMEM-Hepes were inoculated. The mice, previously anaesthetized with nembutal, were inoculated by way of intrasplenic injection, by means of a little incision and subsequently closed with stitches. These mice were killed 11 days after injection of the tumoral cells by cervical dislocation.
Treatment 1: again, 5 mice were inoculated in the same way as those of the control group. Six days after the injection, a daily treatment with 0.1 mg/mL of PCI in 0.1, mL of PBS by way of intraperitoneal injection was started. The animals were also killed on the eleventh day after the injection.
Treatment 2: in this case, the cells inoculated to the mice (also 5 of them) were previously treated in vitro for 4 days in a concentration of 0.1 mg/mL of PCI. […]
Once killed, their liver was extracted. […] Afterwards, the sections were dyed with hematoxyline-eosine and the number of metastatic focuses was counted.

The subject of experiment [3] is human pancreatic adenocarcinoma cell line Capan-1. To be noted: 16 days.
Protocol: Two kinds of tests were carried out; the first one is the treatment of cells of the human pancreatic adenocarcinoma cell line Capan-1 with wtPCI and tail added to the culture medium in absence of serum.
In a culture plate with 96 wells, 5,000 cells were seed per well, in 24 of them. The cells were placed in full medium (DMEM+10%FBS).
In 6 wells (control): 200 μL of serum-free medium (DMEM-FBS) and free of tail were added.
200 μL of serum-free medium with 50 μg/mL of native PCI were added.
In 6 wells, 200 μL of serum-free medium with 0.128 μg of tail/mL were added.
In 6 wells, serum-free medium with 6.4 μg of tail/mL was added.
The medium contained in the wells was changed every 3-4 days. The old medium was sucked out using a Pasteur pipette.
After 16 days, the cell growth per well was evaluated according to the method detailed in the protocol of Section 4.B.2.a.

In the case of “PCI: potato carboxypeptidase inhibitor, isoform IIa, obtained by recombinant DNA techniques in E. coli (SEQ ID NO.2) (EQHADPICNKPCKTHDDCSGAWFCQACWNSARTCGPYVG; disulfide 12-27, 18-34, 8-24)”, the “higher transcription of p53 in relation to the control group cells (treatment/control)” value is 2.8 times with p53 (1 mg/mL PCI) and 1.2 times in the experiment with p53 (10 mg/mL PCI). For the same substance, in the experiment on p53 (1 mg/mL PCI (control 0.1445)), the “p53/b2 (counts of one band in relation to those of β2-microglobuline)” value came out at 0.4040. The “beta counts, p53 probe” value was determined as 882 in the experiment with p53 (1 mg/mL PCI) and 1111 in the experiment on p53 (10 mg/mL PCI). Further, the “tumoral transformation induced by irradiation” value with embryonic cells of mice is recorded as “inhibits in vitro the tumoral transformation”. The “% G2 M” value is listed as 4.7% in experiment [1] (24 h (control 6.4)), 3.7% in experiment [1] (48 h), 4% in experiment [1] (72 h) and 3.9% in experiment [1] (96 h). In addition, the “% S” value in experiment [1] (24 h (control 14.3)) is 20.4%; in experiment [1] (48 h), 11%; in experiment [1] (72 h), 10.9%; in experiment [1] (96 h), 7.6%. Besides, the “% G1” value in experiment [1] (24 h (control 79.2)) is given as 74.9%; in experiment [1] (48 h), 85.3%; in experiment [1] (72 h), 85.1%; in experiment [1] (96 h), 88.5%. Moreover, the “number of metastatic focuses in liver” value in experiment [2] (treatment 1: daily intraperitoneal 0.1 mg/mL of PCI in 0.1 mL PBS from day 6) is on record as 27 focuses; in experiment [2] (treatment 2: cells treated in vitro 4 days with 0.1 mg/mL of PCI before inoculation), 4±1 focuses. Besides, the “Growth (Percentage in relation to the average of the controls)” value in experiment [3] (50 mg/mL wtPCI, serum-free medium) is 107.6%. In experiment [3] (wtPCI in serum-free medium), the “growth of Capan-1 cells” value was “not altered”.
